Experimental data reported in PubChem BioAssay AID1259407 (Chemical Carcinogenesis Research Information System (CCRIS), 2018).
Active and inactive are the calls of the source. The rule behind the calls is not given here.

Tested on: CCRIS mutagenicity, Ames/micronucleus/aberration tests
Assay: CCRIS mutagenicity studies
[1] = Test System: AMES SALMONELLA TYPHIMURIUM, Strain/Indicator: TA98, Metabolic Activation: HAMSTER, LIVER, S-9, AROCLOR 1254 (10%), Method: PREINCUBATION
[2] = Test System: AMES SALMONELLA TYPHIMURIUM, Strain/Indicator: TA98, Metabolic Activation: NONE, Method: PREINCUBATION
[3] = Test System: AMES SALMONELLA TYPHIMURIUM, Strain/Indicator: TA98, Metabolic Activation: NONE, Method: STANDARD PLATE
[4] = Test System: AMES SALMONELLA TYPHIMURIUM, Strain/Indicator: TA98, Metabolic Activation: RAT, LIVER, S-9, AROCLOR 1254 (10%), Method: PREINCUBATION
[5] = Test System: AMES SALMONELLA TYPHIMURIUM, Strain/Indicator: TA100, Metabolic Activation: HAMSTER, LIVER, S-9, AROCLOR 1254 (10%), Method: PREINCUBATION
[6] = Test System: AMES SALMONELLA TYPHIMURIUM, Strain/Indicator: TA100, Metabolic Activation: NONE, Method: PREINCUBATION
[7] = Test System: AMES SALMONELLA TYPHIMURIUM, Strain/Indicator: TA100, Metabolic Activation: NONE, Method: STANDARD PLATE
[8] = Test System: AMES SALMONELLA TYPHIMURIUM, Strain/Indicator: TA100, Metabolic Activation: RAT, LIVER, S-9, AROCLOR 1254 (10%), Method: PREINCUBATION
[9] = Test System: AMES SALMONELLA TYPHIMURIUM, Strain/Indicator: TA1535, Metabolic Activation: HAMSTER, LIVER, S-9, AROCLOR 1254 (10%), Method: PREINCUBATION
[10] = Test System: AMES SALMONELLA TYPHIMURIUM, Strain/Indicator: TA1535, Metabolic Activation: NONE, Method: PREINCUBATION
[11] = Test System: AMES SALMONELLA TYPHIMURIUM, Strain/Indicator: TA1535, Metabolic Activation: RAT, LIVER, S-9, AROCLOR 1254 (10%), Method: PREINCUBATION
[12] = Test System: AMES SALMONELLA TYPHIMURIUM, Strain/Indicator: TA1537, Metabolic Activation: HAMSTER, LIVER, S-9, AROCLOR 1254 (10%), Method: PREINCUBATION
[13] = Test System: AMES SALMONELLA TYPHIMURIUM, Strain/Indicator: TA1537, Metabolic Activation: NONE, Method: PREINCUBATION
[14] = Test System: AMES SALMONELLA TYPHIMURIUM, Strain/Indicator: TA1537, Metabolic Activation: RAT, LIVER, S-9, AROCLOR 1254 (10%), Method: PREINCUBATION
[15] = Test System: AMES SALMONELLA TYPHIMURIUM, Strain/Indicator: TA98, Metabolic Activation: RAT, LIVER, S-9, AROCLOR 1254, Method: STANDARD PLATE
[16] = Test System: AMES SALMONELLA TYPHIMURIUM, Strain/Indicator: TA100, Metabolic Activation: RAT, LIVER, S-9, AROCLOR 1254, Method: STANDARD PLATE
[17] = Test System: AMES SALMONELLA TYPHIMURIUM, Strain/Indicator: TA1535, Metabolic Activation: NONE, Method: STANDARD PLATE
[18] = Test System: AMES SALMONELLA TYPHIMURIUM, Strain/Indicator: TA1535, Metabolic Activation: RAT, LIVER, S-9, AROCLOR 1254, Method: STANDARD PLATE
[19] = Test System: AMES SALMONELLA TYPHIMURIUM, Strain/Indicator: TA1538, Metabolic Activation: NONE, Method: STANDARD PLATE
[20] = Test System: AMES SALMONELLA TYPHIMURIUM, Strain/Indicator: TA1538, Metabolic Activation: RAT, LIVER, S-9, AROCLOR 1254, Method: STANDARD PLATE

Structure (SMILES)	mutagenic call [1]	mutagenic call [2]	mutagenic call [3]	mutagenic call [4]	mutagenic call [5]	mutagenic call [6]	mutagenic call [7]	mutagenic call [8]	mutagenic call [9]	mutagenic call [10]	mutagenic call [11]	mutagenic call [12]	mutagenic call [13]	mutagenic call [14]	mutagenic call [15]	mutagenic call [16]	mutagenic call [17]	mutagenic call [18]	mutagenic call [19]	mutagenic call [20]	also measured
COc1ccc(C=O)cc1OC	inactive; negative	inactive; negative	inactive; negative	inactive; negative	inactive; negative	inactive; negative	inactive; negative	inactive; negative	inactive; negative	inactive; negative	inactive; negative	inactive; negative	inactive; negative	inactive; negative							mutagenic call (Test System: AMES SALMONELLA TYPHIMURIUM, Strain/Indicator: TA100, Metabolic Activation: RAT LIVER S-9, AROCLOR 1254, Method: PREINCUBATION): inactive; negative; mutagenic call (Test System: AMES SALMONELLA TYPHIMURIUM, Strain/Indicator: TA102, Metabolic Activation: NONE, Method: PREINCUBATION): inactive; negative; mutagenic call (Test System: AMES SALMONELLA TYPHIMURIUM, Strain/Indicator: TA102, Metabolic Activation: RAT LIVER S-9, AROCLOR 1254, Method: PREINCUBATION): inactive; negative; mutagenic call (Test System: AMES SALMONELLA TYPHIMURIUM, Strain/Indicator: TA104, Metabolic Activation: NONE, Method: PREINCUBATION): inactive; negative; mutagenic call (Test System: AMES SALMONELLA TYPHIMURIUM, Strain/Indicator: TA104, Metabolic Activation: RAT LIVER S-9, AROCLOR 1254, Method: PREINCUBATION): inactive; negative; mutagenic call (Test System: E. COLI, Strain/Indicator: CM561 LEXA, Metabolic Activation: NONE, Method: STANDARD PLATE): inactive; negative; mutagenic call (Test System: E. COLI, Strain/Indicator: CM611 UVRA/LEXA, Metabolic Activation: NONE, Method: STANDARD PLATE): inactive; negative; mutagenic call (Test System: E. COLI, Strain/Indicator: WP2 UVRA, Metabolic Activation: NONE, Method: STANDARD PLATE): inactive; negative
Nc1ccccn1	inactive; negative	inactive; negative		inactive; negative	inactive; negative	inactive; negative		inactive; negative	inactive; negative	inactive; negative	inactive; negative	inactive; negative	inactive; negative	inactive; negative							
C=CCc1ccc(O)c(O)c1			inactive; negative				inactive; negative								inactive; negative	inactive; negative	inactive; negative	inactive; negative	inactive; negative	inactive; negative	mutagenic call (Test System: AMES SALMONELLA TYPHIMURIUM, Strain/Indicator: TA97, Metabolic Activation: NONE, Method: STANDARD PLATE): inactive; negative; mutagenic call (Test System: AMES SALMONELLA TYPHIMURIUM, Strain/Indicator: TA97, Metabolic Activation: RAT, LIVER, S-9, AROCLOR 1254, Method: STANDARD PLATE): inactive; negative; mutagenic call (Test System: AMES SALMONELLA TYPHIMURIUM, Strain/Indicator: TA102, Metabolic Activation: NONE, Method: STANDARD PLATE): active; positive; mutagenic call (Test System: AMES SALMONELLA TYPHIMURIUM, Strain/Indicator: TA102, Metabolic Activation: RAT, LIVER, S-9, AROCLOR 1254, Method: STANDARD PLATE): inactive; negative
CSC[C@H](NC(=O)COc1cccc2cnccc12)C(=O)N[C@@H](Cc1ccccc1)[C@H](O)C(=O)N1CSC[C@H]1C(=O)NC(C)(C)C			inactive; negative				inactive; negative								inactive; negative	inactive; negative	inactive; negative	inactive; negative	inactive; negative	inactive; negative	mutagenic call (Test System: AMES SALMONELLA TYPHIMURIUM, Strain/Indicator: TA98, Metabolic Activation: HAMSTER, LIVER, S-9, AROCLOR 1254, Method: STANDARD PLATE): inactive; negative; mutagenic call (Test System: AMES SALMONELLA TYPHIMURIUM, Strain/Indicator: TA100, Metabolic Activation: HAMSTER, LIVER, S-9, AROCLOR 1254, Method: STANDARD PLATE): inactive; negative; mutagenic call (Test System: AMES SALMONELLA TYPHIMURIUM, Strain/Indicator: TA1535, Metabolic Activation: HAMSTER, LIVER, S-9, AROCLOR 1254, Method: STANDARD PLATE): inactive; negative; mutagenic call (Test System: AMES SALMONELLA TYPHIMURIUM, Strain/Indicator: TA1537, Metabolic Activation: HAMSTER, LIVER, S-9, AROCLOR 1254, Method: STANDARD PLATE): inactive; negative; mutagenic call (Test System: AMES SALMONELLA TYPHIMURIUM, Strain/Indicator: TA1537, Metabolic Activation: NONE, Method: STANDARD PLATE): inactive; negative; mutagenic call (Test System: AMES SALMONELLA TYPHIMURIUM, Strain/Indicator: TA1537, Metabolic Activation: RAT, LIVER, S-9, AROCLOR 1254, Method: STANDARD PLATE): inactive; negative; mutagenic call (Test System: AMES SALMONELLA TYPHIMURIUM, Strain/Indicator: TA1538, Metabolic Activation: HAMSTER, LIVER, S-9, AROCLOR 1254, Method: STANDARD PLATE): inactive; negative; mutagenic call (Test System: Mouse lymphoma, Strain/Indicator: L5178Y (tk+/tk-), Metabolic Activation: None, Method: Suspension/plate): inactive; negative; mutagenic call (Test System: Mouse lymphoma, Strain/Indicator: L5178Y (tk+/tk-), Metabolic Activation: Rat, Liver, S-9, Aroclor 1254, Method: Suspension/plate): active; equivocal (previous evaluation positive)
